According to patent US12226404B2, “Methods for making compositions for pulmonary administration” (Board of Regents, the University of Texas System, priority 2007, dated 2025):
Values after ≈ are worked out from the molar mass of the structure shown. Values joined by “and” are separate entries in the source; they are usually repeats but may differ in a detail not shown here. Identical values can stand only once.

Key:
[1] = Evaluation of rodent dosing apparatus with nebulized ITZ colloidal suspension, in vivo lung concentration; set-up: species or system outbred ICR mice; conditions: individual mice, 5 min nebulization
Source text: As used herein, the term “pre-clinical rodent dosing apparatus” refers to the apparatus reported by J. T. McConville, P. Sinswat, J. Tam, K. P. Johnston and R. O. Williams III, In vitro and in vivo validation of a high-concentration pre-clinical rodent dosing apparatus for inhalation, Proceedings of the American Association of Pharmaceutical Scientists, San Antonio, TX, October, 2006, relevant portions incorporated herein by reference. An animal dosing chamber was designed which consisted of hollow tubing (20×4.5 cm; nominal wall thickness of 0.4 cm) with four 1.75 cm adapter holes drilled at 7 cm intervals (2 holes along each side). The adapter holes were constructed to accept rodent restraint tubes from the Battelle® toxicology testing unit. A standard itraconazole (ITZ) colloidal suspension was nebulized into the apparatus for 5 minutes using a micro-pump nebulizer. Atomized droplets containing ITZ were driven into the chamber at a flow rate of 1 L/min. ITZ concentrations were measured in vitro at the 4 adapter ports, and in vivo from the lungs of 8 outbred-ICR mice in the appropriate mice restraining tubes at the adapter ports.
Example 11. […] ITZ concentrations were measured in vitro at the 4 adapter ports, and in vivo from the lungs of male outbred ICR mice in the appropriate mice restraining tubes at the adapter ports. […]

[2] = Equilibrium solubility of TAC in modified simulated lung fluid with 0.02% DPPC; type: physicochemical; conditions: modified simulated lung fluid (SLF) with 0.02% DPPC, 37 °C, fassgf or other biorelevant, thermodynamic from solid, modified simulated lung fluid 0.02% DPPC
[3] = adult patients; cited from earlier work
[4] = Dissolution testing below equilibrium solubility (sink) in modified simulated lung fluid with 0.02% DPPC; type: physicochemical; conditions: SLF 0.02% DPPC
Procedure: Dissolution Testing at Below Equilibrium Solubility. Dissolution testing at below equilibrium solubility was performed on the URF powder samples using a United States Pharmacopeia (USP) 27 Type 2 dissolution apparatus (VanKel VK6010 Dissolution Tester with a Vanderkamp VK650A heater/circulator, Varian, Inc. Palo Alto, CA). […] The dissolution media was maintained at 37.0±0.2° C. and stirred at a constant rate of 50 rpm. Samples (1 mL) were withdrawn at 10, 20, 30, 60 and 120 minute time points, filtered using a 0.45 μm GHP Acrodisc filter (VWR, Inc., West Chester, PA) and analyzed using a Shimadzu LC-10 liquid chromatograph (Shimadzu Corporation, Kyoto, Japan) equipped with an Alltech ODS-2, 5 μm C18 column (Alltech Associates, Inc., Deerfield, IL). The mobile phase consisted of a 70:30 (v/v) ACN: Water mixture, used at a flow rate of 1 mL/min. The maximum absorbance was measured at wavelength λmax=214 nm.
Example 5. […] Samples (1 mL) were withdrawn at 10, 20, 30, 60, and 120 minute time points, filtered using a 0.45 μm GHP Acrodisc filter (VWR, Inc. Westchester, PA), and analyzed using a Shimadzu LC-10 liquid chromatograph (Shimadzu Corporation, Kyoto, Japan) equipped with an Altech ODS-2, 5 μm C18 column (Altech Associates, Deerfield, IL). […] The maximum absorbance was measured at wavelength λ=214 nm.

[5] = BET specific surface area analysis; type: physicochemical
Procedure: As used herein, the term “BET Analysis” refers to a method for measuring the surface area of the exposed surface of a solid sample on the molecular scale. The BET (Brunauer, Emmet, and Teller) theory is typically used to determine the area of solids. Commonly, samples are prepared by heating and simultaneously evacuating or flowing gas over the sample to remove the liberated impurities. The prepared samples are then cooled with liquid nitrogen and analyzed by measuring the volume of gas (typically N2 or Kr) adsorbed at specific pressures. Krypton gas is often used when the measured surface is expected to be less than 2 m^2/g (typically pharmaceutical samples and natural organic materials). The skilled artisan will recognize that several types of instruments may be used for measuring surface area, which depends upon the extent of the surface or the gas required to achieve the best results. […]
BET Specific Surface Area Analysis. Specific surface area was measured using a Nova 2000 v. […] The data recorded were then analyzed according to BET theory using NOVA Enhanced Data Reduction Software v. […]
Example 3. […] Specific surface area was measured using a Nova 2000 v 6.11 instrument (Quantachrome Instruments, Boynton Beach, FL). […] The data recorded were then analyzed according to BET theory using NOVA Enhanced Data Reduction Software v. […]

solubility thermodynamic [2] [µg/mL] | dissolution of TAC ([4]; at 1 hr, 37° C.) [%] | dissolution of TAC ([4]; in 30 minutes, sink conditions) [%] | Specific Surface Area ([5]; Table 2) [m^2/g] | Surface Area (BET) ([5]; URF study, Table 4) [m^2/g] | Compound | ITZ Conc. in Lung Tissue [1] | average oral bioavailability [3]
 |  |  |  |  | CCC(C)n1ncn(-c2ccc(N3CCN(c4ccc(OCC5COC(Cn6cncn6)(c6ccc(Cl)cc6Cl)O5)cc4)CC3)cc2)c1=O (stereo not shown) [ITZ, itraconazole] | 21.6 µg/g and 20.2 µg/g and 18.3 µg/g and 13.5 µg/g and 15.9 µg/g and 18.6 µg/g and 19.2 µg/g and 22.7 µg/g | 
~6.8 (≈ 8.46 µM) | 30 | 30 | 0.533 | 0.53 | C=CC[C@@H]1/C=C(\C)C[C@H](C)C[C@H](OC)[C@H]2O[C@@](O)(C(=O)C(=O)N3CCCC[C@H]3C(=O)O[C@H](/C(C)=C/[C@@H]3CC[C@@H](O)[C@H](OC)C3)[C@H](C)[C@@H](O)CC1=O)[C@H](C)C[C@@H]2OC [unprocessed TAC, Tacrolimus] |  | approximately 25%
